From US20260232750A1, “COMPOSITION AND METHOD FOR INHIBITING ADVANCED GLYCATION END PRODUCTS” (ACCESS BUSINESS GROUP INTERNATIONAL LLC, priority 2022, published 2026)
pIC50: −log10 of the molar value. Structures can show the parent of a compound that is named as a salt.

Experiments:
[1] = tested on: AGEs in wild type AB zebrafish; experiment: Anti-glycation activity on zebrafish (AGEs increase model, 0.4 M glucose); type: in vivo; conditions: 200 μg/mL, 5 dpf zebrafish, 24 h
Protocol: Zebrafish were all fed in fish culture water at 28° C. (water quality: 200 mg instant sea salt was added to 1 L reverse osmosis water, the conductivity was 450-550 μS/cm; PH 6.5~8.5; Hardness of 50-100 mg/L CaCO3), provided by a fish breeding center, experimental animal use license number: SYXK (Zhejiang) 2012-0171, feeding management in line with the international AAALAC certification (certification number: 001458) requirements. Wild type AB zebrafish are bred naturally in pairs. Zebrafish aged 5 days after fertilization (DPF) were used to evaluate the anti-aging efficacy of samples.
Five DPF wild type AB zebrafish were randomly selected and placed in 1.5 mL centrifuge tubes, with 10 zebrafish in each tube (experimental group). The extracts of Dendrobium officinale flower were given in aqueous solution with positive control aminoguanidine hydrochloride (AG) concentration of 200 μg/mL, and normal control group and model control group were set at the same time. The volume of each tube was 150 μL. […] After 24 h treatment on a 60° C. shaker, the supernatant was centrifuged and the data were collected using a multifunctional microplate reader, the fluorescent values of AGEs in each experimental group were analyzed, and the results of statistical analysis of this indicator were used to evaluate the anti-aging efficacy of samples.

[2] = tested on: CML expression in human dermal fibroblasts (HDFs); experiment: Anti-glycation activity on HDFs (CML immunofluorescence, glyoxal/MGO-induced); type: cell-based
Protocol: HDFs cells were digested from T75 flasks and seeded to 12 well culture plate on slides at 50,000 cells per well. After 48 h the cells were treated by 0.5 mM glyoxal for 48 h. Then the cells were treated with or without positive controls or active samples for an additional 48 h. At the end of the experiment, cell slides were washed once by phosphate-buffered saline (PBS) and fixed in polyformaldehyde overnight at 4° C. For […] (CML) biomarker staining, the slides were blocked in 1% bovine serum albumin (BSA) for 1 h then applied with primary CML antibody (1:50) overnight at 4° C. The next day secondary antibody (1:1000) was applied for 2 h at room temperature. […] Image J was used to quantified CML expression from different visions randomly picked by each group. Data is presented as the mean±SD, and analyzed with Student's t-test or one-way ANOVA. * P<0.05, ** P<0.01, *** P<0.001. […]
HDFs were cultured in high-glucose DMEM supplemented with 10% FBS containing 100 µg/ml of PS at 37° C. in a humidified 5% CO2 incubator. Cell viability was assessed using the CCK-8 kit. […] Counterstaining was performed by adopting anti-fluorescence quenching and sealing liquid containing DAPI, followed by visualisation and fluorescence image capture using a microscope (Leica, Germany). ImageJ software was used to quantify CML expression from different images randomly selected in each group.

[3] = tested on: fluorescent AGEs (BSA-fructose/glucose system); experiment: Fluorescent AGEs formation in a BSA-fructose/glucose system; type: biochemical, bovine
Protocol: The formation of total fluorescent AGEs in glycated samples was assessed by determining their fluorescent intensities at an excitation/emission wavelength of 350/450 nm, as previously described. Glycated protein was prepared in vitro by incubating BSA in the presence of D-glucose (GLC) and D-fructose (FRC). The DOF extract and specific standards were dissolved in DMSO:water (1:4). BSA (4 mg/ml, 100 μl) was preliminary mixed with 50 μl of GLC (0.5 M) and 50 μl of FRC (0.5 M) in 20 mM sodium phosphate buffer (pH 7.4), and then 100 μl samples were added in the 96-well plate and incubated at 37.5° C. for 7 days. All solutions were prepared under sterile conditions and filtered using a 0.22-μm syringe before incubation. The assay was performed in triplicate, and AG was used as a positive control.

SMILES: N=C(N)NN [Aminoguanidine hydrochloride]
- AGEs fluorescence value (mean ± SE) [1]: 35106 ± 770
- Anti-glycation effect, CML expression, AVE ([2]; 0.1 mM, 48 h after 0.5 mM glyoxal, Glyoxal = 100.00): 11.89
- inhibition of glycation ([2]; positive compound AG, MGO-induced HDFs, CML IF): 88.11%
- IC50, fluorescent AGEs ([3]; BSA-fructose/glucose, 37.5° C., 7 days, text b277): 177.3 ± 11.6 µg/mL
- pIC50 ([3]; read-out: IC50, AGE formation): 2.79
